Test system: repressed BLEC Jurkat clones
Assay: Characterization of repressed BLEC Jurkat clones, relative repression of beta-lactamase
Assay type: cell-based, human
Conditions: PHA 10 microgram/ml, CsA 100 nM, PMA 8 nM, Thaps 1 microM
Source text: These clones represent cells in which the BLEC trapping construct had integrated into a gene down regulated by PHA (T-cell) activation. Thus, these cells report the transcriptional repression of a gene upon cellular activation. Individual clones were identified and isolated by FACS using CCF2/AM to detect beta-lactamase activity using the following repressed sorting paradigm.
A first sort was used to isolate a population of cells that constitutively express beta-lactamase by identifying and isolating a population of blue cells from an unstimulated population of BLEC transfected Jurkat cells contacted with CCF2/AM. The sorted population of cells represented 2.89% of the unsorted population. These cells were cultured, divided into two pools, and stimulated with one of two different stimuli, either 10 micrograms/ml PHA for 18 hours, or 8 nM PMA and 1 microM Thapsigargin for 18 hours. These stimulated cells were contacted with CCF2 (loading in the presence of 400 PET (4% weight/volume) and Pluoronic 128 (100 micrograms/ml)) and the green cells in the population were sorted using FACS. The sorted population represented 8.41% of the cell population prior to the second sort. The third round of FACS was for single blue unstimulated cells. The population of cells obtained represented 18.2% of the cell population prior to the third sort.
This sorting procedure represents a 2,260-fold enrichment for PHA repressible clones. These clones have the beta-lactamase gene integrated into a gene that is down regulated by PHA stimulation of the cells. Six of 80 individual clones tested were repressed by PHA or PMA+Thapsigargin. All of these clones were confirmed to be independent integration events by genomic Southern analysis using a DNA probe encoding beta-lactamase.
Table 7 and Table 8 provide data similar to that provided in Table 5 for all of the clones obtained by the methods of Examples 5 to 7.

phytohemaglutinin [PHA]
Relative repression of beta-lactamase in the indicated clone by the following activator (clone 183/97pptr2): 10 | Relative repression of beta-lactamase in the indicated clone by the following activator (clone J83/97pptr1): 90 | Relative repression of beta-lactamase in the indicated clone by the following activator (clone J83/97pptr3): 10 | Relative repression of beta-lactamase in the indicated clone by the following activator (clone J83/97pptr4): 60 | Relative repression of beta-lactamase in the indicated clone by the following activator (clone J83/97pptr5): 50 | Relative repression of beta-lactamase in the indicated clone by the following activator (clone J83/97pptr6): 70
